Like-named read-outs stand apart in the source and are kept apart here.
Key:
human orexin-2 receptor = human orexin-2 receptor (Homo sapiens (Human), UniProt O43614); test: Intracellular calcium measurement (FLIPR), CHO cells expressing human orexin-2 receptor, 3 nM orexin-A; assay type: cell-based; settings: read-out: IC50 OX2
Outline: (§1)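 Fluo-4 AM-loaded CHO cells; antagonist preincubation 120 min, then 3 nM orexin-A (final) in HBSS/0.1% BSA/20 mM HEPES. FLIPR read at 1 s intervals; peak height vs. agonist-plus-vehicle control → IC50.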

orexin-1 = orexin-1 (Homo sapiens (Human), UniProt O43613); test: Intracellular calcium measurement (FLIPR), CHO cells expressing human orexin-1 receptor, 3 nM orexin-A; assay type: cell-based; settings: read-out: IC50 OX1
orexin-1, sequence (O43613 whole entry): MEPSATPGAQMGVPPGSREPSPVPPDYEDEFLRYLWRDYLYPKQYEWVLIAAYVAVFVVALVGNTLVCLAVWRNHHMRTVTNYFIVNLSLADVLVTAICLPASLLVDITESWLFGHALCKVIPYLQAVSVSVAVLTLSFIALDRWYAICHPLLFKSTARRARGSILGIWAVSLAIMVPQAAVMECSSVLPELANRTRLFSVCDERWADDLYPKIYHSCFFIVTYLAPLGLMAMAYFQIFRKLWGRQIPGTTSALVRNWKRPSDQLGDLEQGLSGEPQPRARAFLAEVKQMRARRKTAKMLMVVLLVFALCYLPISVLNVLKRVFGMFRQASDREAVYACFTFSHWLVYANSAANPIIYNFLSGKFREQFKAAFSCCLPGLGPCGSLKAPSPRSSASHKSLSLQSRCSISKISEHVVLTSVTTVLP
Outline: as §1

[1] = CHO cells expressing human orexin-2 receptor, FLIPR, 3 nM orexin-A, geometric mean if determined several times
[2] = CHO cells expressing human orexin-1 receptor, FLIPR, 3 nM orexin-A, geometric mean if determined several times

human orexin-2 receptor, sequence (O43614 whole entry): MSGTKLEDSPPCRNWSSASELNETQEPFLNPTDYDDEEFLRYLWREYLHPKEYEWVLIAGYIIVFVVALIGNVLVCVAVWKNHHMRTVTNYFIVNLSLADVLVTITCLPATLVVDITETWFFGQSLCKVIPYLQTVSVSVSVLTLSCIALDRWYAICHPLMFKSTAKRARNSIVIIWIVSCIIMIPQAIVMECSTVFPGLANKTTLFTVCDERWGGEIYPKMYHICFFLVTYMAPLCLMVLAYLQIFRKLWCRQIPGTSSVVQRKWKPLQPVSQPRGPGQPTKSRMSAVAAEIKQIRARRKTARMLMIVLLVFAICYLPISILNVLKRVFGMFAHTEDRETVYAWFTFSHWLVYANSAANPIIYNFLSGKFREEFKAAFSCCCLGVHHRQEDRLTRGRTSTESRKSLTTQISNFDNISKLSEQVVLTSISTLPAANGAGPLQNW

## Cc1nc(C(=O)N2CCC[C@H]2c2nc(-c3cccc(Cl)c3C)no2)c(-c2ccc(F)cc2)s1 [compound 125]
Human orexin-2 receptor; [1]
  IC50: 80 nM
orexin-1; [2]
  IC50: 353 nM

## CCOc1ncccc1-c1nc([C@@H]2CCCN2C(=O)c2cc(OC)c(C)cc2-n2nccn2)no1 [compound 311, {(S)-2-[5-(2-Ethoxy-pyridin-3-yl)-[1,2,4]oxadiazol-3-yl]-pyrrolidin-1-yl}-(5-methoxy-4-methyl-2-[1,2,3]triazol-2-yl-phenyl)-methanone]
Human orexin-2 receptor; [1]
  IC50: 4 nM
orexin-1; [2]
  IC50: 16 nM

## COc1cccc(-c2noc([C@@H]3CCCN3C(=O)c3cc(C)ccc3-n3nccn3)n2)c1OC [compound 59, {(S)-2-[3-(2,3-Dimethoxy-phenyl)-[1,2,4]oxadiazol-5-yl]-pyrrolidin-1-yl}-(5-methyl-2-[1,2,3]triazol-2-yl-phenyl)-methanone]
Human orexin-2 receptor; [1]
  IC50: 47 nM
orexin-1; [2]
  IC50: 1220 nM

## CCOc1ccccc1-c1nc([C@@H]2CCCN2C(=O)c2cc(OC)c(C)cc2-n2nccn2)no1 [compound 309, {(S)-2-[5-(2-Ethoxy-phenyl)-[1,2,4]oxadiazol-3-yl]-pyrrolidin-1-yl}-(5-methoxy-4-methyl-2-[1,2,3]triazol-2-yl-phenyl)-methanone]
Human orexin-2 receptor; [1]
  IC50: 1 nM
orexin-1; [2]
  IC50: 13 nM

## Cc1ccc(-n2nccn2)c(C(=O)N2CCC[C@H]2c2nc(-c3ccccc3CCO)no2)c1 [Example 87, ((S)-2-{3-[2-(2-Hydroxy-ethyl)-phenyl]-[1,2,4]oxadiazol-5-yl}-pyrrolidin-1-yl)-(5-methyl-2-[1,2,3]triazol-2-yl-phenyl)-methanone]
Human orexin-2 receptor; [1]
  IC50: 70 nM
orexin-1; [2]
  IC50: 439 nM

## CCOc1ncccc1-c1nnc([C@@H]2CCCN2C(=O)c2cc(C)c(C)cc2-n2nccn2)[nH]1 [compound 480, (4,5-Dimethyl-2-[1,2,3]triazol-2-yl-phenyl)-{(S)-2-[5-(2-ethoxy-pyridin-3-yl)-4H-[1,2,4]triazol-3-yl]-pyrrolidin-1-yl}-methanone]
Human orexin-2 receptor; [1]
  IC50: 9 nM
orexin-1; [2]
  IC50: 8 nM

## COc1c(Cl)cccc1-c1nc([C@@H]2CCCN2C(=O)c2ccc(Cl)cc2-n2nccn2)no1 [compound 349]
Human orexin-2 receptor; [1]
  IC50: 3 nM
orexin-1; [2]
  IC50: 27 nM

## COc1cc(C(=O)N2CCC[C@H]2c2noc(-c3cc(C)ccc3C)n2)c(-n2nccn2)cc1C [compound 405, {(S)-2-[5-(2,5-Dimethyl-phenyl)-[1,2,4]oxadiazol-3-yl]-pyrrolidin-1-yl}-(5-methoxy-4-methyl-2-[1,2,3]triazol-2-yl-phenyl)-methanone]
Human orexin-2 receptor; [1]
  IC50: 1 nM
orexin-1; [2]
  IC50: 33 nM

## Cc1cc(C)nc(-c2noc([C@@H]3CCCN3C(=O)c3cc(C)ccc3-n3nccn3)n2)c1 [compound 12, {(S)-2-[3-(4,6-Dimethyl-pyridin-2-yl)-[1,2,4]oxadiazol-5-yl]-pyrrolidin-1-yl}-(5-methyl-2-[1,2,3]triazol-2-yl-phenyl)-methanone]
Human orexin-2 receptor; [1]
  IC50: 816 nM
orexin-1; [2]
  IC50: 796 nM

## Cc1ccc(-n2nccn2)c(C(=O)N2CCC[C@H]2c2nc(-c3cccc(C)c3C)no2)c1 [compound 13, {(S)-2-[3-(2,3-Dimethyl-phenyl)-[1,2,4]oxadiazol-5-yl]-pyrrolidin-1-yl}-(5-methyl-2-[1,2,3]triazol-2-yl-phenyl)-methanone]
Human orexin-2 receptor; [1]
  IC50: 13 nM
orexin-1; [2]
  IC50: 70 nM

## Cc1cc(CC(C)C)nc(-c2noc([C@@H]3CCCN3C(=O)c3cc(C)ccc3-n3nccn3)n2)c1 [compound 67, {(S)-2-[3-(6-Isobutyl-4-methyl-pyridin-2-yl)-[1,2,4]oxadiazol-5-yl]-pyrrolidin-1-yl}-(5-methyl-2-[1,2,3]triazol-2-yl-phenyl)-methanone]
Human orexin-2 receptor; [1]
  IC50: 333 nM
orexin-1; [2]
  IC50: 1250 nM

## Cc1ccc(-n2nccn2)c(C(=O)N2CCC[C@H]2c2nc(-c3ccc4c(c3)OCO4)no2)c1 [compound 22, [(S)-2-(3-Benzo[1,3]dioxol-5-yl-[1,2,4]oxadiazol-5-yl)-pyrrolidin-1-yl]-(5-methyl-2-[1,2,3]triazol-2-yl-phenyl)-methanone]
Human orexin-2 receptor; [1]
  IC50: 322 nM
orexin-1; [2]
  IC50: 942 nM

## Cc1c(F)cccc1-c1nc([C@@H]2CCCN2C(=O)c2ccc(Cl)cc2-n2nccn2)no1 [compound 379]
Human orexin-2 receptor; [1]
  IC50: 5 nM
orexin-1; [2]
  IC50: 52 nM

## Cc1onc(-c2ccccc2Cl)c1C(=O)N1CCC[C@H]1c1noc(-c2cccc(Cl)c2C)n1 [Ref 8]
Human orexin-2 receptor; [1]
  IC50: > 21800 nM
orexin-1; [2]
  IC50: > 26200 nM

## COc1ccc(-n2nccn2)c(C(=O)N2CCC[C@H]2c2nc(-c3ccccc3OC)no2)c1 [compound 232, {(S)-2-[3-(2-Methoxy-phenyl)-[1,2,4]oxadiazol-5-yl]-pyrrolidin-1-yl}-(5-methoxy-2-[1,2,3]triazol-2-yl-phenyl)-methanone]
Human orexin-2 receptor; [1]
  IC50: 78 nM
orexin-1; [2]
  IC50: 134 nM

## Cc1c(Cl)cccc1-c1noc([C@@H]2CCCN2C(=O)c2cccc(F)c2-n2nccn2)n1 [compound 114]
Human orexin-2 receptor
  IC50: 83 nM
orexin-1
  IC50: 1080 nM

## Cc1ccc(-n2nccn2)c(C(=O)N2CCC[C@H]2c2nc(-c3c[nH]c4ccccc34)no2)c1 [compound 15, {(S)-2-[3-(1H-Indol-3-yl)-[1,2,4]oxadiazol-5-yl]-pyrrolidin-1-yl}-(5-methyl-2-[1,2,3]triazol-2-yl-phenyl)-methanone]
Human orexin-2 receptor; [1]
  IC50: 8 nM
orexin-1; [2]
  IC50: 21 nM

## COc1cc(C(=O)N2CCC[C@H]2c2nnc(-c3cccc(Cl)c3C)o2)c(-n2nccn2)cc1C [compound 445]
Human orexin-2 receptor
  IC50: 9 nM
orexin-1; [2]
  IC50: 157 nM

## O=C(c1ccccc1-c1ncco1)N1CCC[C@H]1c1nc(-c2ccccc2OC(F)(F)F)no1 [compound 171, (2-Oxazol-2-yl-phenyl)-{(S)-2-[3-(2-trifluoromethoxy-phenyl)-[1,2,4]oxadiazol-5-yl]-pyrrolidin-1-yl}-methanone]
Human orexin-2 receptor; [1]
  IC50: 30 nM
orexin-1; [2]
  IC50: 104 nM

## CCOc1ncccc1-c1noc([C@@H]2CCCN2C(=O)c2cc(C)ccc2-c2ncco2)n1 [compound 224, {(S)-2-[3-(2-Ethoxy-pyridin-3-yl)-[1,2,4]oxadiazol-5-yl]-pyrrolidin-1-yl}-(5-methyl-2-oxazol-2-yl-phenyl)-methanone]
Human orexin-2 receptor; [1]
  IC50: 6 nM
orexin-1; [2]
  IC50: 19 nM

## Cc1ccc(-n2nccn2)c(C(=O)N2CCC[C@H]2c2nc(-c3cccc4c3OCCO4)no2)c1 [compound 38, {(S)-2-[3-(2,3-Dihydro-benzo[1,4]dioxin-5-yl)-[1,2,4]oxadiazol-5-yl]-pyrrolidin-1-yl}-(5-methyl-2-[1,2,3]triazol-2-yl-phenyl)-methanone]
Human orexin-2 receptor; [1]
  IC50: 12 nM
orexin-1; [2]
  IC50: 23 nM

## COc1ccc(-n2nccn2)c(C(=O)N2CCC[C@H]2c2nc(-c3ccccc3Cl)no2)c1 [compound 240]
Human orexin-2 receptor; [1]
  IC50: 147 nM
orexin-1; [2]
  IC50: 1330 nM

## COc1ccc(-n2nccn2)c(C(=O)N2CCC[C@H]2c2nc(-c3cccc(F)c3C)no2)c1 [compound 249, {(S)-2-[3-(3-Fluoro-2-methyl-phenyl)-[1,2,4]oxadiazol-5-yl]-pyrrolidin-1-yl}-(5-methoxy-2-[1,2,3]triazol-2-yl-phenyl)-methanone]
Human orexin-2 receptor; [1]
  IC50: 8 nM
orexin-1; [2]
  IC50: 151 nM

## Cc1ccc(-n2nccn2)c(C(=O)N2CCC[C@H]2c2nnc(-c3cccc(Cl)c3)o2)c1 [Example 455, {(S)-2-[5-(3-Chloro-phenyl)-[1,3,4]oxadiazol-2-yl]-pyrrolidin-1-yl}-(5-methyl-2-[1,2,3]triazol-2-yl-phenyl)-methanone]
Human orexin-2 receptor; [1]
  IC50: 1690 nM
orexin-1; [2]
  IC50: 835 nM

## Cc1c(Cl)cccc1-c1noc([C@@H]2CCCN2C(=O)c2ccc(F)cc2-n2nccn2)n1 [compound 112]
Human orexin-2 receptor
  IC50: 121 nM
orexin-1; [2]
  IC50: 833 nM

## Cc1onc(-c2ccccc2Cl)c1C(=O)N1CCC[C@H]1c1nc(-c2ccccc2OC(F)(F)F)no1 [Ref 10]
Human orexin-2 receptor; [1]
  IC50: 2190 nM
orexin-1; [2]
  IC50: 782 nM

From US9493446B2, “Orexin receptor antagonists which are [ortho bi-(hetero-)aryl]-[2-(meta bi-(hetero-)aryl)-pyrrolidin-1-yl]-methanone derivatives” (Actelion Pharmaceuticals Ltd, priority 2012, dated 2016)
